pIC50: −log10 of the molar value.
Legend:
recombinant human PGHS-2 = assay: Inhibition of PGE2 production by recombinant human PGHS-2 (microsomes, baculovirus/Sf9; EIA); format: biochemical; settings: human recombinant PGHS-2, 60 min preincubation, 10 μM arachidonic acid, 2.5 min
Description: (§1) Inhibition of prostaglandin biosynthesis was evaluated in recombinant human PGHS-1 and PGHS-2 enzyme assays. Representative compounds dissolved in DMSO (3.3% v/v) were preincubated with microsomes from recombinant human PGHS-1 or PGHS-2 expressed in the baculovirus/Sf9 cell system (Gierse, J. K., Hauser, […]., and Seibert, K. […] The reaction was allowed to run for 2.5 minutes at room temperature prior to quenching with HCl and neutralization with NaOH. PGE2 production in the presence and absence of the drug was determined by EIA analysis. The EIA was conducted in 96 well microtiter plates (Nunc Roskilde, Denmark) and optical density measured using a microplate reader (Vmax, Molecular Devices Corp., Menlo Park, Calif.). EIA reagents for prostaglandin determination were purchased from Perseptive Diagnostics, Cambridge, Mass. PGE2 levels were measured against standards prepared in the same milieu. The immunoassays were conducted as recommended by the manufacturer.

recombinant human PGHS-1 = target: T1, recombinant human PGHS-1 (Homo sapiens, UniProt P23219); assay: Inhibition of PGE2 production by recombinant human PGHS-1 (microsomes, baculovirus/Sf9; EIA); format: biochemical; settings: human recombinant PGHS-1; 60 min preincubation; 10 μM arachidonic acid, 2.5 min
T1 construct: made in house; host or cells: baculovirus/Sf9 insect cells (microsomes)
Description: as §1

[1] = system: prostaglandin endoperoxide H synthase 2 (PGHS-2); settings: reported in literature; cited from earlier work
[2] = system: prostaglandin endoperoxide H synthase 1 (PGHS-1); settings: reported in literature; cited from earlier work

T1 sequence (P23219 24-599): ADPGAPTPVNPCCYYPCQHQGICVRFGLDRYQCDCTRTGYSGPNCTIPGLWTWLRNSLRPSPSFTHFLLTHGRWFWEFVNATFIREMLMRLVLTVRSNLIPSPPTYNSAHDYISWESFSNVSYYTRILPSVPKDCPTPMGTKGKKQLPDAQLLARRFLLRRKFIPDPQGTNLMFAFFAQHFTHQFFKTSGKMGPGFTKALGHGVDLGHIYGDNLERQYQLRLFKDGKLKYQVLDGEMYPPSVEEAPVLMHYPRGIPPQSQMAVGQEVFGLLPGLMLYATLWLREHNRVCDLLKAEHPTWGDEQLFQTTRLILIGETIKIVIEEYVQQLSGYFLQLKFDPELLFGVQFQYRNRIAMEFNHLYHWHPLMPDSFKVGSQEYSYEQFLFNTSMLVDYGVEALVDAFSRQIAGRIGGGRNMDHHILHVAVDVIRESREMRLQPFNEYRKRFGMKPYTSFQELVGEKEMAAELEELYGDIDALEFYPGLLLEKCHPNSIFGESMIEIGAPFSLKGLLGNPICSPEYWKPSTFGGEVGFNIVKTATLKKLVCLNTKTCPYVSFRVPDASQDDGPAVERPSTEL

pIC50 (recombinant human PGHS-1)	Structure (SMILES)	PGHS-2 % Inhibition (recombinant human PGHS-2; @ 0.1 μM) [%]	PGHS-2 % Inhibition (recombinant human PGHS-2; @ 1.0 μM) [%]	inhibition of PGHS-2 [1]	inhibition of PGHS-1 [2]
5.22	Cc1ccc(Cl)c(Nc2ccccc2CON=CC(=O)O)c1Cl [Example 1, glyoxylic acid-O-[2-(2,6-dichloro-3-methylphenylamino)phenylmethyl] oxime]	68			
4.21	CC(=NOCc1ccccc1Nc1c(Cl)ccc(C)c1Cl)C(=O)O [Example 2, pyruvic acid-O-[2-[(2,6-dichloro-3-methylphenyl)amino]phenylmethyl] oxime]		28		
	Cc1ccc(Cl)c(Nc2ccccc2C(=O)O)c1Cl [Meclofenamic acid]			inhibit both PGHS-1 and PGHS-2	inhibit both PGHS-1 and PGHS-2
	CC(C)Cc1ccc(C(C)C(=O)O)cc1 (stereo not shown) [ibuprofen]			inhibit both isozymes	inhibit both isozymes
	COc1ccc2cc([C@H](C)C(=O)O)ccc2c1 [naproxen]			inhibit both isozymes	inhibit both isozymes
